Measured values reported in patent US8987502B2, “Oleanolic acid amidate derivatives, preparation methods and uses thereof” (Hangzhou Bensheng Pharmaceutical Co., Ltd., priority 2011, dated 2015).
Values after ≈ are worked out from the molar mass of the structure shown. Blank lines part the entries; values can stand above or below the compound they belong to.

Assays:
U87 MG = experiment: MTT solid tumor cell proliferation inhibition, U87 MG; assay type: cell-based, human; conditions: Homo sapiens, U-87 MG, U87 MG, 72 h
Description: (§1) Human solid tumor cell lines: Hep-2 (laryngeal carcinoma), A549 (human lung cancer), CaES-17 (esophageal cancer cell), PC-3 (prostate cancer), CNE (nasopharyngeal carcinoma cell), and SK-OV-3 (ovarian cancer cell), all of which are purchased from China Center For Type Culture Collection; RKO (human colon adenocarcinoma cell), MGC 803 (human gastric cancer cell), MG63 (osteosarcoma) and U87 MG (malignant glioma cell), all of which are purchased from Fuxiang Bio-tech Co. Ltd., Shanghai, China; PANC-1 (pancreatic cancer), Hep G2 (human liver cancer cell), Becap37 (human breast cancer cell), and Hela (human cervical cancer cell), all of which are donated by Cancer Research Institute of Zhejiang University, China.
(§2) Obtaining 4000 well-growing human solid tumor cells and inoculating them into wells of a 96-well cell culture plate. The culture medium is DMEM High Glucose cell culture medium containing 10% fetal bovine serum. The plate is placed in a carbon dioxide cell incubator (5% CO2) at 37° C. for 24 hours for incubation. After being added with the amidated oleanolic acid derivatives of different concentrations and mixed uniformly, the plate is placed in a carbon dioxide cell incubator (5% CO2) at 37° C. for 72 hours for incubation. Then the relative number of the living cells is determined by the MTT method. In this experiment, the cell proliferation inhibition rate in control group (not treated with any compound) is set as 0%.

NB4 = experiment: MTT leukemia cell proliferation inhibition, NB4; assay type: cell-based; conditions: Homo sapiens, NB-4
From the text: (§3) Leukemia cell lines: leukemia cell lines: K562/adr (drug-resistant, chronic myeloid leukemia, CML), NB4 (acute promyelocytic leukemia, AML), Kasumi-1 (acute myeloid leukemia M2 type, AML-M2), Jurkat (acute lymphoblastic leukemia, ALL), all of which are donated by Cancer Research Institute of Zhejiang University, China; and H9 (acute lymphoblastic leukemia, ALL), which is purchased from China Center for Type Culture Collection (CCTCC).
(§4) Reagents: The standard sample of oleanolic acid (OA) is purchased from Hua Kang Pharmaceutical Raw Material Factory, Shifang City, Sichuan, China; and the amidated oleanolic acid derivatives are prepared according to the present invention.
(§5) Obtaining 6000 well-growing leukemia cells and inoculating them into wells of a 96-well cell culture plate. The culture medium is the 1640 cell culture medium containing 10% fetal bovine serum. After adding the amidated oleanolic acid derivatives of different concentrations and mixing uniformly, placing the plate in a carbon dioxide cell incubator (5% CO2) at 37° C. and incubated for 72 hours. Then the relative number of viable cells is determined by the MTT method. In this experiment, the cell proliferation inhibition rate in control group (not treated with any compound) is set as 0%.

CNE = experiment: MTT solid tumor cell proliferation inhibition, CNE; assay type: cell-based, human; conditions: Homo sapiens, CNE, 72 h
Description: as §1, §2

CaES-17 = experiment: MTT solid tumor cell proliferation inhibition, CaES-17; assay type: cell-based, human; conditions: Homo sapiens, CaEs17
Description: as §1, §2

Hela = experiment: MTT solid tumor cell proliferation inhibition, Hela; assay type: cell-based, human; conditions: Homo sapiens, Hela, 72 h
Description: as §1, §2

MGC803 = experiment: MTT solid tumor cell proliferation inhibition, MGC803; assay type: cell-based, human; conditions: Homo sapiens, MGC-803
Description: as §1, §2

H9 = experiment: MTT leukemia cell proliferation inhibition, H9; assay type: cell-based, human; conditions: Homo sapiens
From the text: as §3, §4, §5

Hep-2 = experiment: MTT solid tumor cell proliferation inhibition, Hep-2; assay type: cell-based, human; conditions: Homo sapiens
Description: as §1, §2

Kasumi-1 = experiment: MTT leukemia cell proliferation inhibition, Kasumi-1; assay type: cell-based; conditions: Homo sapiens
From the text: as §3, §4, §5

RPMI8226 = experiment: MTT multiple myeloma cell proliferation inhibition, RPMI8226; assay type: cell-based; conditions: Homo sapiens, RPMI-8226
Description: Multiple myeloma cell lines: RPMI8226 (multiple myeloma), purchased from Fuxiang Bio-tech Co. Ltd., Shanghai, China.
as §5

Hep G2 = experiment: MTT solid tumor cell proliferation inhibition, Hep G2; assay type: cell-based; conditions: Homo sapiens, HepG2
Description: as §1, §2

SK-OV-3 = experiment: MTT solid tumor cell proliferation inhibition, SK-OV-3; assay type: cell-based, human; conditions: Homo sapiens
Description: as §1, §2

A549 = experiment: MTT solid tumor cell proliferation inhibition, A549; assay type: cell-based, human; conditions: Homo sapiens; for inhibition at 16 µg/mL: A549, 16 μg/mL compound, 72 h, read-out: IR (inhibition rate); for IC50: A549, 72 h, MTT
Description: as §1, §2

MG 63 = experiment: MTT solid tumor cell proliferation inhibition, MG 63; assay type: cell-based, human
Description: as §1, §2

K562/adr = experiment: MTT leukemia cell proliferation inhibition, K562/adr; assay type: cell-based; conditions: Homo sapiens, 72 h; for inhibition at 16 µg/mL: 16 μg/mL compound, read-out: IR (inhibition rate); for IC50: MTT
From the text: as §3, §4, §5

Jurkat = experiment: MTT leukemia cell proliferation inhibition, Jurkat; assay type: cell-based; conditions: Homo sapiens, 72 h
From the text: as §3, §4, §5

Becap37 = experiment: MTT solid tumor cell proliferation inhibition, Becap37; assay type: cell-based; conditions: Homo sapiens
Description: as §1, §2

RKO = experiment: MTT solid tumor cell proliferation inhibition, RKO; assay type: cell-based; conditions: Homo sapiens, 72 h
Description: as §1, §2

PANC-1 = experiment: MTT solid tumor cell proliferation inhibition, PANC-1; assay type: cell-based, human; conditions: Homo sapiens
Description: as §1, §2

PC-3 = experiment: MTT solid tumor cell proliferation inhibition, PC-3; assay type: cell-based, human; conditions: Homo sapiens
Description: as §1, §2

[1] = 16 μg/mL compound, read-out: IR (inhibition rate)

IC50 (U87 MG; MTT): > 16 µg/mL
IC50 (NB4; NB4, 72 h, MTT): 8.22 µg/mL (≈ 15.3 µM)
IC50 (CNE; MTT): > 16 µg/mL
IC50 (CaES-17; CaES-17, 72 h, MTT): > 16 µg/mL
IC50 (Hela; MTT): 14.2 µg/mL (≈ 26.3 µM)
IC50 (MGC803; MGC803, 72 h, MTT): 16 µg/mL (≈ 29.7 µM)
IC50 (H9; H9, 72 h, MTT): 12.5 µg/mL (≈ 23.2 µM)
IC50 (Hep-2; Hep-2, 72 h, MTT): > 16 µg/mL
IC50 (Kasumi-1; Kasumi-1, 72 h, MTT): > 16 µg/mL
IC50 (RPMI8226; RPMI8226, 72 h, MTT): 6.44 µg/mL (≈ 12 µM)
IC50 (Hep G2; Hep G2, 72 h, MTT): > 16 µg/mL
IC50 (SK-OV-3; SK-OV-3, 72 h, MTT): 14.6 µg/mL (≈ 27.2 µM)
IC50 (A549): > 16 µg/mL
IC50 (MG 63; Homo sapiens, MG 63, 72 h, MTT): > 16 µg/mL
IC50 (K562/adr): 7.83 µg/mL (≈ 14.6 µM)
IC50 (Jurkat; MTT): > 16 µg/mL
IC50 (Becap37; Becap37, 72 h, MTT): > 16 µg/mL
IC50 (RKO; MTT): > 16 µg/mL
IC50 (PANC-1; PANC-1, 72 h, MTT): > 16 µg/mL
IC50 (PC-3; PC-3, 72 h, MTT): 17.4 µg/mL (≈ 32.4 µM)
Compound: CC1(C)CC[C@]2(NC(=O)c3cccs3)CC[C@]3(C)C(=CC[C@@H]4[C@@]5(C)CC[C@H](O)C(C)(C)[C@@H]5CC[C@]43C)[C@@H]2C1 [BS-OA-098]
inhibition at 16 µg/mL (U87 MG; [1]): 29.8%
inhibition at 16 µg/mL (NB4; NB4, 16 μg/mL compound, 72 h, read-out: IR (inhibition rate)): 96.3%
inhibition at 16 µg/mL (CNE; [1]): 35.8%
inhibition at 16 µg/mL (CaES-17; CaES-17, 16 μg/mL compound, 72 h, read-out: IR (inhibition rate)): 39.9%
inhibition at 16 µg/mL (Hela; [1]): 63.1%
inhibition at 16 µg/mL (MGC803; MGC803, 16 μg/mL compound, 72 h, read-out: IR (inhibition rate)): 46.3%
inhibition at 16 µg/mL (H9; H9, 16 μg/mL compound, 72 h, read-out: IR (inhibition rate)): 62.4%
inhibition at 16 µg/mL (Hep-2; Hep-2, 16 μg/mL compound, 72 h, read-out: IR (inhibition rate)): 19.6%
inhibition at 16 µg/mL (Kasumi-1; Kasumi-1, 16 μg/mL compound, 72 h, read-out: IR (inhibition rate)): 35.7%
inhibition at 16 µg/mL (RPMI8226; RPMI8226, 16 μg/mL compound, 72 h, read-out: IR (inhibition rate)): 97.6%
inhibition at 16 µg/mL (Hep G2; Hep G2, 16 μg/mL compound, 72 h, read-out: IR (inhibition rate)): 28.4%
inhibition at 16 µg/mL (SK-OV-3; SK-OV-3, 16 μg/mL compound, 72 h, read-out: IR (inhibition rate)): 53.5%
inhibition at 16 µg/mL (A549): 24.3%
IR (inhibition rate) (MG 63; MG 63, 16 μg/mL compound, 72 h): 20.9%
inhibition at 16 µg/mL (K562/adr): 81.9%
inhibition at 16 µg/mL (Jurkat; [1]): 20.1%
inhibition at 16 µg/mL (Becap37; Becap37, 16 μg/mL compound, 72 h, read-out: IR (inhibition rate)): 28.6%
inhibition at 16 µg/mL (RKO; [1]): 27%
inhibition at 16 µg/mL (PANC-1; PANC-1, 16 μg/mL compound, 72 h, read-out: IR (inhibition rate)): 34.7%
inhibition at 16 µg/mL (PC-3; PC-3, 16 μg/mL compound, 72 h, read-out: IR (inhibition rate)): 45.1%

IC50 (A549): > 16 µg/mL
IC50 (K562/adr): > 16 µg/mL
Compound: CC1(C)CC[C@]2(NC(=O)/C=C/c3ccco3)CC[C@]3(C)C(=CC[C@@H]4[C@@]5(C)CC[C@H](O)C(C)(C)[C@@H]5CC[C@]43C)[C@@H]2C1 [BS-OA-100]
inhibition at 16 µg/mL (A549): 15.6%
inhibition at 16 µg/mL (K562/adr): 38.8%

IC50 (A549): > 16 µg/mL
IC50 (K562/adr): > 16 µg/mL
Compound: Cc1ccc(C(=O)N[C@]23CCC(C)(C)C[C@H]2C2=CC[C@@H]4[C@@]5(C)CC[C@H](O)C(C)(C)[C@@H]5CC[C@@]4(C)[C@]2(C)CC3)cc1 [BS-OA-102]
inhibition at 16 µg/mL (A549): 13.7%
inhibition at 16 µg/mL (K562/adr): 57%
